Assays:
[1] = test system: Staphylococcus aureus; assay: Antimicrobial activity against quinolone-sensitive Staphylococcus aureus MS5935
[2] = test system: Staphylococcus aureus; assay: Resistance index, ratio of MIC for quinolone-resistant Staphylococcus aureus MS5935 to MIC for quinolone-[…]; type: functional
[3] = test system: Staphylococcus aureus; assay: Antimicrobial activity against quinolone-resistant Staphylococcus aureus MS5935; type: functional
[4] = Oral bioavailability in Sprague-Dawley rat at 5 mg/kg; type: ADME, organism-based; settings: in vivo
[5] = Volume of distribution at steady state in Sprague-Dawley rat at 2 mg/kg, iv or 5 mg/kg, po; type: ADME, organism-based; settings: in vivo, read-out: Vdss
[6] = test system: Staphylococcus aureus; assay: Antimicrobial activity against Staphylococcus aureus infected in orally dosed mouse bacteremia survival model; type: functional; settings: po
[7] = test system: Rattus norvegicus; assay: Dose normalized AUC in Sprague-Dawley rat at 2 mg/kg, iv or 5 mg/kg, po; type: ADME, organism-based; settings: in vivo
[8] = Oral bioavailability in C57BL/6 mouse at 5 mg/kg; type: ADME, organism-based; settings: in vivo
[9] = test system: Mus musculus; assay: Dose normalized AUC in C57BL/6 mouse at 2 mg/kg, iv or 5 mg/kg, po; type: ADME, organism-based; settings: in vivo
[10] = test system: Staphylococcus aureus; assay: Antimicrobial activity against Staphylococcus aureus infected in iv dosed mouse bacteremia survival model; type: functional
[11] = Plasma clearance in C57BL/6 mouse at 2 mg/kg, iv or 5 mg/kg, po; type: ADME, organism-based
[12] = Plasma clearance in Sprague-Dawley rat at 2 mg/kg, iv or 5 mg/kg, po; type: ADME, organism-based
[13] = Half life in Sprague-Dawley rat at 2 mg/kg, iv or 5 mg/kg, po; type: ADME, organism-based; settings: in vivo
[14] = Half life in C57BL/6 mouse at 2 mg/kg, iv or 5 mg/kg, po; type: ADME, organism-based; settings: in vivo
[15] = Volume of distribution at steady state in C57BL/6 mouse at 2 mg/kg, iv or 5 mg/kg, po; type: ADME, organism-based; settings: in vivo, read-out: Vdss

Question: For C[C@H]1COc2c(N3CCN(C)CC3)c(F)cc3c(=O)c(C(=O)O)cn1c23.C[C@H]1COc2c(N3CCN(C)CC3)c(F)cc3c(=O)c(C(=O)O)cn1c23.O [LEVOFLOXACIN], which MIC [1] is on record?
Answer: The MIC was 0.25 µg/mL.

Question: What about the Ratio [2] of the same molecule?
Answer: The Ratio was greater than 64.

Question: What about the MIC [3] of the same molecule?
Answer: The MIC was greater than 16 µg/mL.

Question: What does the source list for Cl.O=C1COc2ccc(CNC34CCC(CCc5c(F)cnc6ccc(OCCCO)nc56)(CC3)OC4)nc2N1?
Answer: bioavailability [4]: 49%; Vd [5]: 0.84 L/kg; ED50 [6]: 15 mg/kg; AUC/dose [7]: 1.9 µM·h/mg/kg; bioavailability [8]: 16%; AUC/dose [9]: 1.6 µM·h/mg/kg; ED50 [10]: 5.9 mg/kg; clearance [11]: 38.7 mL/min/kg; clearance [12]: 33.2 mL/min/kg; half-life [13]: 0.58 h; half-life [14]: 1.5 h; Vd [15]: 1.46 L/kg

Question: What does the source list for COc1ccc2ncc(F)c(C[C@H](O)C34CCC(NCc5ccc6c(n5)NC(=O)CO6)(CC3)CO4)c2n1.Cl?
Answer: ED50 [6]: 2.2 mg/kg; ED50 [10]: 2.5 mg/kg

Question: With Cl.NCCCOc1ccc2ncc(F)c(CCC34CCC(NCc5ccc6c(n5)NC(=O)CO6)(CC3)CO4)c2n1 as the molecule, how does the ED50 [6] read?
Answer: Its ED50 is greater than 50 mg/kg.

Question: What about the ED50 [10] of the same molecule?
Answer: The ED50 was 15 mg/kg.

Question: Which results are given for COc1ccc2ncc(F)c(CCC34CCC(NCc5ccc6c(n5)NC(=O)CO6)(CC3)CO4)c2n1.Cl?
Answer: ED50 [6]: 17 mg/kg; ED50 [10]: 5.5 mg/kg

Question: For Cl.O=C1COc2ccc(CNC34CCC([C@@H](O)Cc5c(F)cnc6ccc(OCCCO)nc56)(CC3)OC4)nc2N1, which ED50 [6] is on record?
Answer: The ED50 was greater than 50 mg/kg.

Question: What about the ED50 [10] of the same molecule?
Answer: The ED50 was 5.5 mg/kg.

From ChEMBL document CHEMBL3603744, “Structure activity relationship of C-2 ether substituted 1,5-naphthyridine analogs of oxabicyclooctane-linked novel bacterial topoisomerase inhibitors as broad-spectrum antibacterial agents (Part-5)” (Bioorg Med Chem Lett, 2015)
